Results published in patent US20030166605A1, “Method of minimizing damage to heart tissue during cardiac surgery and cardiac transplantation” (priority 1999, published 2003).
Read-outs that look alike come from different tables or passages of the source.

Assay type: in vivo
Details: for Cardiac Index, slope of percentage change from baseline (Slope ± SE) / Pulmonary capillary wedge pressure, slope of percentage change from baseline (Slope ± SE) / Systolic Blood Pressure, slope of percentage change from baseline (Slope ± SE): per hour; for Cardiac Index, slope of percentage change from baseline (Slope ± SE) / Pulmonary capillary wedge pressure, slope of percentage change from baseline (Slope ± SE) / Systolic Blood Pressure, slope of percentage change from baseline (Slope ± SE) / Heart Rate, slope of percentage change from baseline (Slope ± SE): first 24 postoperative hours; for Heart Rate, slope of percentage change from baseline (Slope ± SE): percentage change per hour; for absolute mean heart rate: 24 hours after surgery; for patients who received dopamine / use of any inotropic agent: first 7 days after surgery; for patients who received dopamine: placebo 77%; for use of any inotropic agent: placebo 79%; for insertions of an intraaortic balloon pump for low cardiac output: nine in placebo group; for death rate: placebo 6.0%
Description: A double blind, placebo controlled trial was performed on 253 patients randomized into three groups. The objective of the study was to evaluate the safety, tolerance and efficacy of adenosine in patients undergoing coronary artery bypass surgery. Inadequate myocardial protection in patients undergoing coronary artery bypass surgery contributes to overall hospital mortality and morbidity.
The treatments included the intraoperative administration of cold blood cardioplegia, blood cardioplegia including 500 μM adenosine (“low dose adenosine”), and blood cardioplegia including 200 mM adenosine (“high dose adenosine”). Patients receiving adenosine were also given an infusion of adenosine (200 μg/kg/min) 10 minutes before and 15 minutes after removal of the aortic crossclamp. Invasive and non-invasive measurements of ventricular performance were obtained before, during and after surgery.
Exclusion criteria included known or suspected pregnancy, known hypersensitivity to adenosine, and enrollment in another clinical trial study.
Study Design: 253 patients were split into three groups. Group A patients (n=84) received placebo and were given standard hyperkalemic cold blood cardioplegia. Group B patients (low dose adenosine, n=84) were given hyperkalemic cold blood cardioplegia containing 500 μM adenosine. Group C patients (high dose adenosine) were given hyperkalemic cold blood cardioplegia containing 200 mM adenosine. The patients who received adenosine cardioplegia were also exposed to a 10 minute infusion of adenosine pre-treatment (200 μg/kg/min) immediately before application of the aortic crossclamp and a 15 minute infusion of adenosine immediately after removing the crossclamp.
Before surgery, patients were evaluated for the degree of ischemic disease by history, echocardiography, and cardiac catheterization. In the operating room, hemodynamic measurements were obtained and recorded just before initiating cardiopulmonary bypass and 15, 30, 45 and 60 minutes and 2, 3, 4, 5, and 8 hours after cessation of bypass. In patients requiring intravenous inotropic medications in the postoperative period, hemodynamic monitoring was continued with measurements of specified parameters every 2 hours for 24 hours, and then every 4 hours until the inotropic medications were discontinued or it was ascertained that monitoring was no longer helpful in the management of the patient.
Invasive hemodynamic measurements included systolic blood pressure, heart rate, central venous pressure, pulmonary artery pressure, pulmonary capillary wedge pressure and cardiac output. The cardiac index, stroke volume, systemic vascular resistance, pulmonary vascular resistance, right ventricular stroke work index and left ventricular stroke index were derived. The cardiac output measurements were obtained using a thermodilution catheter and computer. Noninvasive heart function studies included 12-lead electrocardiograms, preoperative stress dobutamine echocardiography, and pre- and post-operative transthoracic and transesophageal echocardiograms. Patients were monitored from the time of enrollment to follow-up 4 to 6 weeks after discharge from the hospital. This included routine blood work and chemistries, arterial blood gases, pH, creatine kinase (CK)-MB concentrations, and pulse oximetry.
The primary endpoints of the study were reduction in total dopamine use during the first 7 days, reduction in all inotropic support required during the first 7 days, reduction in the use of dopamine to less than 5 μg/kg/min.
There were 21 secondary endpoints, including improvement in postoperative hemodynamics, reduction in the use of the intraaortic balloon pump, reduction in the incidence of myocardial infarction, and decrease in the mortality rate.
All patients who received study treatment and underwent coronary bypass surgery were included in the intent-to-treat analysis. […]

[1] = Group B, low dose adenosine (500 μM cardioplegia + infusion)
[2] = Group C, high dose adenosine (200 mM cardioplegia + infusion)

With `Nc1ncnc2c1ncn2[C@@H]1O[C@H](CO)[C@@H](O)[C@H]1O` [adenosine] the “Cardiac Index, slope of percentage change from baseline (Slope ± SE)” value [1] was 1.130 ± 0.105, the “Pulmonary capillary wedge pressure, slope of percentage change from baseline (Slope ± SE)” value [1] was 0.688 ± 0.249 and the “Systolic Blood Pressure, slope of percentage change from baseline (Slope ± SE)” value [1] was 0.387 ± 0.060. The “Heart Rate, slope of percentage change from baseline (Slope ± SE)” value (Group B, low dose adenosine (500 μM in cold blood cardioplegia + 200 μg/kg/min infusion)) was 0.510 ± 0.078, the “Cardiac Index, slope of percentage change from baseline (Slope ± SE)” value [2] was 1.468 ± 0.112 and the “Pulmonary capillary wedge pressure, slope of percentage change from baseline (Slope ± SE)” value [2] was −0.869 ± 0.288. The “Systolic Blood Pressure, slope of percentage change from baseline (Slope ± SE)” value [2] was 0.440 ± 0.063, the “Heart Rate, slope of percentage change from baseline (Slope ± SE)” value (Group C, high dose adenosine (200 mM in cold blood cardioplegia + 200 μg/kg/min infusion)) was 0.820 ± 0.081 and the “high-dose dopamine support (>5 μg/kg/min)” value (high dose adenosine group versus placebo) was “trend toward a decrease”. The “absolute mean heart rate” value (high dose adenosine group) was 96.8±5.4 beats per minute, the “patients who received dopamine” value (high dose adenosine group) was 79% and the “use of any inotropic agent” value (high dose adenosine group) was 80%. The “insertions of an intraaortic balloon pump for low cardiac output” value (high dose adenosine group) was “five”, the death rate (high dose adenosine group) was 1.2% and the “postoperative MI rate” value (high dose adenosine group, placebo 9.5%) was 1.2%. The “percentage of patients experiencing one of the composite adverse events (high dose dopamine, epinephrine use, intraaortic balloon pump, MI, death)” value (high dose adenosine versus placebo, p=0.006) was “lower”, the safety and tolerance (human, in vivo) was “safe and well tolerated” and the “absolute mean heart rate” value (low dose adenosine group) was 90.7±3.6 beats per minute. The “patients who received dopamine” value (low dose adenosine group) was 71%, the “use of any inotropic agent” value (low dose adenosine group) was 73% and the “insertions of an intraaortic balloon pump for low cardiac output” value (low dose adenosine group) was “two”. It also gave a death rate (low dose adenosine group) of 3.6%.
